From ChEMBL document CHEMBL6109113, “Design, synthesis, and biological evaluation of novel PROTACs compounds with good ERα degradation ability” (Bioorg Med Chem, 2025)
Each block holds one compound with its values, some of them ahead of it. Active and inactive are the calls of the source. The calls are words filed in the database; no cut-off is given here.

Key:
MCF7 [1] = assay: Antiproliferative activity against human MCF7 cells assessed as reduction in cell viability measured after 7 days by celltiter-glo luminescence assay; format: functional, cell-based; details: for IC50: MCF7, 168 h; for Activity: time 7.0 day
[2] = Observed apparent […] clearance in CD-1 mouse at 2 mg/kg, ip by LC-MS/MS analysis; format: ADME, organism-based; details: in vivo
[3] = Cmax in CD-1 mouse at 2 mg/kg, ip by LC-MS/MS analysis; format: ADME, organism-based; details: in vivo
[4] = Half life in CD-1 mouse at 2 mg/kg, ip by LC-MS/MS analysis; format: ADME, organism-based; details: in vivo
[5] = Tmax in CD-1 mouse at 2 mg/kg, ip by LC-MS/MS analysis; format: ADME, organism-based; details: in vivo
MCF7 [6] = assay: Protac activity at VHL/ER in human MCF7 cells assessed as induction of ER degradation at 1 uM measured after 24 hrs by Western blot analysis; format: cell-based
[7] = target: T1, Protein cereblon/Estrogen receptor (Homo sapiens, UniProt P03372+Q96SW2); assay: Protac activity at CRBN/ER in human MCF7 cells assessed as induction of ER degradation at 1 uM measured after 24 hrs by Western blot analysis; format: cell-based
Target sequence in this assay (P03372 whole entry, looked up): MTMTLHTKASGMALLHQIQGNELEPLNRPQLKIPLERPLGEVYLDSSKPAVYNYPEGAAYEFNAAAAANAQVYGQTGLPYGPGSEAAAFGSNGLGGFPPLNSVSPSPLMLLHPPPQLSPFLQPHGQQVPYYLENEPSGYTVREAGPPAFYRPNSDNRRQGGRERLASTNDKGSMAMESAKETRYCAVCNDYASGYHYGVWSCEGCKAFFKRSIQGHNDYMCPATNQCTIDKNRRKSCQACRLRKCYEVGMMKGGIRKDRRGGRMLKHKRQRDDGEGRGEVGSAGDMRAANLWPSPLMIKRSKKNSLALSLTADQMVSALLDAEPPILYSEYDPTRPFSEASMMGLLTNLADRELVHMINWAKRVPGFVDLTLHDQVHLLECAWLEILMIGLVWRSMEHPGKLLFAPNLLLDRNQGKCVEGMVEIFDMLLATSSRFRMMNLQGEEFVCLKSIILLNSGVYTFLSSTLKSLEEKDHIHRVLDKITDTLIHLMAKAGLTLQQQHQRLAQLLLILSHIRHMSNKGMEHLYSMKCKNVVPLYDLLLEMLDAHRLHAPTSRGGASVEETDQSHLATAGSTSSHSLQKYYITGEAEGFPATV
Target sequence in this assay (Q96SW2 whole entry, looked up): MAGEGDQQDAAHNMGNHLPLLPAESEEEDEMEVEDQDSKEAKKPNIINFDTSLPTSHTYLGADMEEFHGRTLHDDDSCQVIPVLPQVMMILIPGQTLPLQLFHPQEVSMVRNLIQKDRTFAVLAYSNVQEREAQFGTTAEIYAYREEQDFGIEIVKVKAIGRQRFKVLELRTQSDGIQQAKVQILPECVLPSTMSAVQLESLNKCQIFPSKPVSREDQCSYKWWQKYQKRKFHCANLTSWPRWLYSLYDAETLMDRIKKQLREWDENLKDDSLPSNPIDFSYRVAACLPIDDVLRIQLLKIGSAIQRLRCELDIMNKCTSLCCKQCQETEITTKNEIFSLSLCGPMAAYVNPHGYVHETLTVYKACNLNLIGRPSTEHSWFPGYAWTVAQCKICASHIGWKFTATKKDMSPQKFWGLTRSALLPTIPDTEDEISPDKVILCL

[8] = Toxicity in CD-1 mouse assessed as adverse effect at 2 mg/kg, ip; format: organism-based; details: in vivo
[9] = target: T1, Protein cereblon/Estrogen receptor; assay: Protac activity at CRBN/ER in human MCF7 cells assessed as induction of ER degradation measured after 24 hrs by Western blot analysis; format: cell-based
[10] = target: T1, Protein cereblon/Estrogen receptor; assay: Protac activity at CRBN/ER in human MCF7 cells assessed as induction of ER degradation at 10 uM measured after 24 hrs by Western blot analysis; format: cell-based
Target sequence in this assay (P03372 whole entry, looked up): as the sequence (P03372 whole entry, looked up) above
Target sequence in this assay (Q96SW2 whole entry, looked up): as the sequence (Q96SW2 whole entry, looked up) above

Structure (SMILES): C[C@]12CC[C@@H]3c4ccc(O)cc4C[C@@H](CCCCCCCCC[S+]([O-])CCCC(F)(F)C(F)(F)F)[C@H]3[C@@H]1CC[C@@H]2O (some centres undefined) [FULVESTRANT]
IC50 (MCF7 [1]): < 0.5 nM
CL/F [2]: 45.8 mL/min/kg
Cmax [3]: 237 ng/mL
half-life [4]: 1.47 h
Tmax [5]: 0.83 h

Structure (SMILES): COC(=O)c1ccc2c(c1)CCCC(c1ccc(Cl)cc1Cl)=C2c1ccc(N2CCC(CN[C@H](C(=O)N3C[C@H](O)C[C@H]3C(=O)N[C@@H](C)c3ccc(-c4scnc4C)cc3)C(C)(C)C)CC2)cc1
Activity (MCF7 [6]): Not active; Degradation Ability Was Poorer When Compared With Compounds Whose E3 Ligase Ligand Was Crbn

Structure (SMILES): Cc1ncsc1-c1ccc([C@H](C)NC(=O)[C@@H]2C[C@@H](O)CN2C(=O)[C@@H](NCC2CCN(c3ccc(C4=C(c5ccc(Cl)cc5Cl)CCCc5cc(C(=O)O)ccc54)cc3)CC2)C(C)(C)C)cc1
Activity (MCF7 [6]): Not active; Degradation Ability Was Poorer When Compared With Compounds Whose E3 Ligase Ligand Was Crbn

Structure (SMILES): COC(=O)c1ccc2c(c1)CCCC(c1ccc(Cl)cc1Cl)=C2c1ccc(OC2CCN(CCCN[C@H](C(=O)N3C[C@H](O)C[C@H]3C(=O)N[C@@H](C)c3ccc(-c4scnc4C)cc3)C(C)(C)C)C2)cc1 (some centres undefined)
Activity (MCF7 [6]): Not active; Degradation Ability Was Poorer When Compared With Compounds Whose E3 Ligase Ligand Was Crbn

Structure (SMILES): COC(=O)c1ccc2c(c1)CCCC(c1ccc(Cl)cc1Cl)=C2c1ccc(OC2CCN(CCCNC(=O)CN3CCN(C(=O)CNc4cccc5c4CN(C4CCC(=O)NC4=O)C5=O)CC3)C2)cc1 (centres undefined)
IC50 (MCF7 [1]): 80.2 nM
Activity (MCF7 [1]): Dose-dependent-effect

Structure (SMILES): COC(=O)c1ccc2c(c1)CCCC(c1ccc(Cl)cc1Cl)=C2c1ccc(OC2CCN(CCCNC(=O)C3CCN(C4CCN(C(=O)CNc5cccc6c5CN(C5CCC(=O)NC5=O)C6=O)CC4)CC3)C2)cc1 (centres undefined)
IC50 (MCF7 [1]): 772 nM
Activity (MCF7 [1]): Dose-dependent-effect

Now from value to compound, other results behind:

Activity [7]: Active
Structure (SMILES): COC(=O)c1ccc2c(c1)CCCC(c1ccc(Cl)cc1Cl)=C2c1ccc(N2CCC(CNCCOCCCOCCCOCCNC(=O)COc3ccc4c(c3)C(=O)N(C3CCC(=O)NC3=O)C4=O)CC2)cc1 (centres undefined)

IC50 (MCF7 [1]): 30.2 nM
CL/F [2]: 25.8 mL/min/kg
Activity [7]: Active
Activity [9]: Dose-dependent-effect
DC50 [9]: 95 nM
Cmax [3]: 677 ng/mL
half-life [4]: 11.2 h
Activity [10]: inactive
Tmax [5]: 0.83 h
Structure (SMILES): COC(=O)c1ccc2c(c1)CCCC(c1ccc(Cl)cc1Cl)=C2c1ccc(N2CCN(CC3CCN(CC4CCN(C(=O)CNc5ccc6c(c5)C(=O)N(C5CCC(=O)NC5=O)C6)CC4)CC3)CC2)cc1 (centres undefined)
Activity (MCF7 [1]): Dose-dependent-effect
Activity [8]: Non-toxic
